Laboratory results: PubChem BioAssay AID330 (DTP/NCI, 2004)
Values joined by “and” are separate entries in the source; they are usually repeats but may differ in a detail not shown here. Identical values can stand only once. Toxic doses and inconclusive results are not listed. Rule for the calls: active = survival T/C of 150% or more; inactive = T/C below 125% in these data.

System: P388 leukemia ip, CD2F1 mice, survival T/C
Assay: NCI In Vivo Anticancer Drug Screen. Data for tumor model P388 Leukemia (intraperitoneal) in CD2F1 (CDF1) mice
Settings: endpoint: median survival time, higher = longer survival
Procedure, shortened: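 Mice carrying the transplanted tumor received test compound or vehicle. Survival was recorded in each group, and the value is the treated-group measurement divided by that of the vehicle-treated control group.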

[1] = dose: 50.0 mg/kg/injection, schedule: Q01DX009 (ip), vehicle: saline with Tween-80
[2] = dose: 100.0 mg/kg/injection, schedule: Q01DX009 (ip), vehicle: saline with Tween-80
[3] = dose: 100.0 mg/kg/injection, schedule: Q01DX009 (ip), vehicle: Klucel (hydroxypropylcellulose) (HPC)
[4] = dose: 200.0 mg/kg/injection, schedule: Q01DX009 (ip), vehicle: Klucel (hydroxypropylcellulose) (HPC)
[5] = dose: 25.0 mg/kg/injection, schedule: Q01DX005 (ip), vehicle: saline with Tween-80
[6] = dose: 50.0 mg/kg/injection, schedule: Q01DX005 (ip), vehicle: saline with Tween-80
[7] = dose: 100.0 mg/kg/injection, schedule: Q01DX005 (ip), vehicle: saline with Tween-80
[8] = dose: 100.0 mg/kg/injection, schedule: Q01DX001 (ip), vehicle: saline
[9] = dose: 200.0 mg/kg/injection, schedule: Q01DX001 (ip), vehicle: saline
[10] = dose: 400.0 mg/kg/injection, schedule: Q01DX001 (ip), vehicle: saline
[11] = dose: 50.0 mg/kg/injection, schedule: Q01DX005 (ip), vehicle: Klucel (hydroxypropylcellulose) (HPC)
[12] = dose: 100.0 mg/kg/injection, schedule: Q01DX005 (ip), vehicle: Klucel (hydroxypropylcellulose) (HPC)
[13] = dose: 200.0 mg/kg/injection, schedule: Q01DX005 (ip), vehicle: Klucel (hydroxypropylcellulose) (HPC)
[14] = dose: 50.0 mg/kg/injection, schedule: Q01DX009 (ip), vehicle: Klucel (hydroxypropylcellulose) (HPC)

Measured: T/C

CSc1ccc(NC(=O)ON2CCCCC2)cc1
inactive: [1] 99 % of control | [2] 108 % of control | dose: 200.0 mg/kg/injection, schedule: Q01DX009 (ip), vehicle: saline with Tween-80 101 % of control

CCCCCCCCCCCCSSSCCCCCCCCCCCC
inactive: dose: 50.0 mg/kg/injection, schedule: Q01DX009 (ip), vehicle: saline 106 % of control | dose: 100.0 mg/kg/injection, schedule: Q01DX009 (ip), vehicle: saline 97 % of control | dose: 200.0 mg/kg/injection, schedule: Q01DX009 (ip), vehicle: saline 99 % of control and 87 % of control

COc1cc2ccc3c(c2cc1OC)CN(Cc1ccccc1)CC3
inactive: [3] 100 % of control | [4] 100 % of control | dose: 400.0 mg/kg/injection, schedule: Q01DX009 (ip), vehicle: Klucel (hydroxypropylcellulose) (HPC) 109 % of control

CC(=O)N1C=Cc2ccccc2C1(Br)C1(Br)c2ccccc2C=CN1C(C)=O (centres undefined)
inactive: [5] 97 % of control | [6] 99 % of control | [7] 89 % of control

CC1=NC2=NC(CCCC(=O)OCc3ccc(Cl)c(Cl)c3)=NC3=CC=CC(=N1)N32
inactive: dose: 25.0 mg/kg/injection, schedule: Q01DX009 (ip), vehicle: saline with Tween-80 101 % of control | [1] 111 % of control | [2] 95 % of control

C/C(=N/NC(=O)c1ccccc1)C(=NO)/C(C)=N\NC(=O)c1ccccc1
inactive: [8] 100 % of control | [9] 97 % of control | [10] 100 % of control

CNc1nc2c(N)ncnc2n1C1CC(O)C(CO)O1 (centres undefined)
inactive: [11] 101 % of control | [12] 96 % of control | [13] 104 % of control

O=C(Nc1ccc(F)cc1)/C(Cl)=C1/Sc2ccccc2NC1=O
inactive: dose: 100.0 mg/kg/injection, schedule: Q01DX001 (ip), vehicle: saline with Tween-80 102 % of control | dose: 200.0 mg/kg/injection, schedule: Q01DX001 (ip), vehicle: saline with Tween-80 94 % of control | dose: 400.0 mg/kg/injection, schedule: Q01DX001 (ip), vehicle: saline with Tween-80 94 % of control

COC(=O)C(CCC(=O)CCl)N1C(=O)c2ccccc2C1=O (centres undefined)
inactive: dose: 25.0 mg/kg/injection, schedule: Q01DX009 (ip), vehicle: Klucel (hydroxypropylcellulose) (HPC) 108 % of control | [14] 106 % of control

COc1cc2oc3cc(OC)c(OC)c(CC=C(C)C)c3c(=O)c2c(O)c1CC=C(C)C
inactive: dose: 25.0 mg/kg/injection, schedule: Q01DX005 (ip), vehicle: Klucel (hydroxypropylcellulose) (HPC) 87 % of control | [11] 100 % of control | [12] 86 % of control and 97 % of control | [13] 105 % of control

COc1ccc(-c2cnc3[nH]c(=O)[nH]c(=O)c3n2)cc1
inactive: [8] 100 % of control | [9] 97 % of control | [10] 90 % of control

O=C1OCC2=C1CN1CCc3cc4c(cc3C1C2)OCO4 (centres undefined)
inactive: dose: 0.63 mg/kg/injection, schedule: Q01DX009 (ip), vehicle: distilled water + Tween-80 94 % of control | dose: 1.25 mg/kg/injection, schedule: Q01DX009 (ip), vehicle: distilled water + Tween-80 103 % of control | dose: 2.5 mg/kg/injection, schedule: Q01DX009 (ip), vehicle: distilled water + Tween-80 112 % of control | dose: 5.0 mg/kg/injection, schedule: Q01DX009 (ip), vehicle: distilled water + Tween-80 103 % of control | dose: 10.0 mg/kg/injection, schedule: Q01DX009 (ip), vehicle: distilled water + Tween-80 103 % of control | dose: 20.0 mg/kg/injection, schedule: Q01DX009 (ip), vehicle: distilled water + Tween-80 94 % of control

COc1ccc(CC2c3cc4c(cc3CCN2C)OCO4)c(C=O)c1OC (centres undefined)
inactive: dose: 12.5 mg/kg/injection, schedule: Q01DX001 (ip), vehicle: saline + alcohol 93 % of control | dose: 25.0 mg/kg/injection, schedule: Q01DX001 (ip), vehicle: saline + alcohol 97 % of control | dose: 50.0 mg/kg/injection, schedule: Q01DX001 (ip), vehicle: saline + alcohol 99 % of control

CC1(C)OC(CC(=O)O)C23COC(C(=O)C4(C)C2CCC2(C)C(C5CCOC5)OC(=O)C5OC524)C13 (centres undefined)
inactive: dose: 0.5 mg/kg/injection, schedule: Q01DX009 (ip), vehicle: saline + alcohol 103 % of control | dose: 1.0 mg/kg/injection, schedule: Q01DX009 (ip), vehicle: saline + alcohol 101 % of control | dose: 2.0 mg/kg/injection, schedule: Q01DX009 (ip), vehicle: saline + alcohol 100 % of control | dose: 4.0 mg/kg/injection, schedule: Q01DX009 (ip), vehicle: saline + alcohol 103 % of control

N#CC(C(O)c1ccccc1)N1CCOCC1 (centres undefined)
inactive: dose: 50.0 mg/kg/injection, schedule: Q01DX009 (ip), vehicle: suspension in saline 102 % of control | dose: 100.0 mg/kg/injection, schedule: Q01DX009 (ip), vehicle: suspension in saline 109 % of control | dose: 200.0 mg/kg/injection, schedule: Q01DX009 (ip), vehicle: suspension in saline 94 % of control

CC(=O)OCC1OC(n2cnc(C(N)=S)c2N)C(OC(C)=O)C1OC(C)=O (centres undefined)
inactive: dose: 60.0 mg/kg/injection, schedule: Q01DX005 (ip), vehicle: saline with Tween-80 100 % of control | dose: 120.0 mg/kg/injection, schedule: Q01DX005 (ip), vehicle: saline with Tween-80 103 % of control | dose: 240.0 mg/kg/injection, schedule: Q01DX005 (ip), vehicle: saline with Tween-80 110 % of control

C=C1CC2(CC3C(CC2C)C3(C)C)OC1=O (centres undefined)
inactive: [8] 101 % of control | [9] 101 % of control | [10] 104 % of control

O=C(Nc1cccc(Cl)c1)OCCN1CCNC1=S
inactive: [14] 116 % of control | [3] 106 % of control | [4] 105 % of control

CC(=O)C[n+]1ccccc1Sc1ccccc1C
inactive: [6] 103 % of control

CCOC(=O)NC(=O)NC(=O)OCC
inactive: dose: 100.0 mg/kg/injection, schedule: Q04DX003 (ip), vehicle: saline sonified 100 % of control | dose: 200.0 mg/kg/injection, schedule: Q04DX003 (ip), vehicle: saline sonified 100 % of control | dose: 400.0 mg/kg/injection, schedule: Q04DX003 (ip), vehicle: saline sonified 100 % of control

O=c1[nH]c2cc3c(cc2n2cccc12)oc1ccccc13
inactive: [5] 98 % of control | [6] 100 % of control | [7] 100 % of control | dose: 200.0 mg/kg/injection, schedule: Q01DX005 (ip), vehicle: saline with Tween-80 100 % of control

CC(O)CCC(=O)c1nc2ccccc2s1 (centres undefined)
inactive: dose: 60.0 mg/kg/injection, schedule: Q01DX005 (ip), vehicle: Klucel (hydroxypropylcellulose) (HPC) 95 % of control | dose: 120.0 mg/kg/injection, schedule: Q01DX005 (ip), vehicle: Klucel (hydroxypropylcellulose) (HPC) 100 % of control | dose: 240.0 mg/kg/injection, schedule: Q01DX005 (ip), vehicle: Klucel (hydroxypropylcellulose) (HPC) 98 % of control
